Test results as given in patent US6924298B2, “2-(3,5-Disubstituted-4-pyridyl)-4-(thienyl, thiazolyl or arylphenyl)-1,3-oxazoline compounds” (Dow AgroSciences LLC, priority 2000, dated 2005).
Where two headings read alike, the source gives them in different places.

Experiments:
Type in all cases: in vivo
[1] = test system: cotton aphid (Aphis gossypii); assay: Insecticidal test for cotton aphid, spray on infested squash cotyledons; conditions: Aphis gossypii, 72 h, read-out: CA: activity at 50 ppm against cotton aphid (% Control rating)
Procedure: Insecticidal Test for Cotton Aphid (Aphis gossypii)
To prepare spray solutions, 1 mg of each test compound was dissolved into 1 mL of a 90:10 acetone:ethanol solvent. This 1 mL of chemical solution was added to 19 mL of water containing 0.05% Tween 20 surfactant to produce a 50 ppm spray solution.
Squash cotyledons were infested with cotton aphid (all life stages)16-20 hours prior to application of spray solution. The solution was sprayed on both sides of each infested squash cotyledon (0.5 mL×2 each side) with a sweeping action until runoff. The plants were allowed to air dry and held for 3 days in a controlled room at 26° C. and 40% RH after which time the test was graded. Grading was by actual count using a dissecting microscope and comparison of test counts to the untreated check. Results are given in Tables 1-4 as percent control based on population reduction versus the untreated.

[2] = test system: two-spotted spider mite (Tetranychus urticae); assay: Insecticidal test for two-spotted spider mite, ovicide method on cotton leaf discs; conditions: Tetranychus urticae, foliar, 144 h, hatched larvae after 6 days, read-out: SM: activity against two-spotted spider mite (% Control rating)
Procedure: Insecticidal Test for Two-Spotted Spider Mite (Tetranychus urticae) Ovicide Method: Ten adult female two-spotted spider mites were placed on eight 2.2 cm leaf discs of cotton leaf, allowed to oviposit over 24 hours, and thereafter removed. […] Discs were placed on an agar substrate and held at 24° C. and 90% RH for 6 days.

[3] = test system: sweetpotato whitefly (Bemisia tabacia); assay: Insecticidal test for sweetpotato whitefly, spray on cotton plants; conditions: 312 h, 200 ppm spray, large nymphs counted after 13 days, read-out: WF: activity at 200 ppm against whitefly (% Control rating)
Procedure: Insecticidal Test for Sweetpotato Whitefly (Bemisia tabacia)
Four mg of each test compound was dissolved by adding 4 mL of a 90:10 acetone:ethanol solvent mixture to the vial containing the sample compound. This solution was added to 16 mL of water containing 0.05% Tween 20 surfactant to produce 20 mL of a 200 ppm spray solution.
Five-week-old cotton plants reared in a greenhouse were stripped of all foliage except for the two uppermost true leaves that were greater than 5 cm in diameter.
These plants were then placed into a laboratory colony of whiteflies for two days for oviposition by the colony females. All whiteflies were then removed from the test plants with pressurized air. The spray solution was then applied to the test plants with a hand-held syringe fitted with hollow cone nozzle. One mL of spray solution was applied to each leaf top and bottom for a total of 4 mL per plant. Four replications of each test compound utilized a total of 16 mL spray solution. Plants were air dried and then placed in a holding chamber (28° C. and 60% RH) for 13 days. Compound efficacy was evaluated by counting, under an illuminated magnifying glass, the number of large nymphs (3rd-4th instar) per leaf.
Percent control based on reduction of large nymphs of a test compound compared to solution-only (no test compound) sprayed plants is reported in Tables 1-4.

[4] = test system: beet armyworm (Spodoptera exigua); assay: Insecticidal test for beet armyworm, treated lepidopteran diet; conditions: Spodoptera exigua, 120 h, read-out: BAW: activity at 400 ppm against beet armyworm (% Control rating)
Procedure: (§1) Insecticidal Test for Tobacco Budworm (Heliothis virescens), Beet Armyworm (Spodoptera exigua), and Cabbage Looper (Trichoplusia ni).
(§2) To prepare the test solution, the test compound was formulated at 400 ppm in 7.5 mL of 2 acetone:1 tap water. 250 μL of the test solution was pipetted upon the surface of 8 mL of lepidopteran diet (modified Shorey) contained in each of five one-ounce plastic cups (one cup=1 replication). A second-instar beet armyworm was placed upon the treated diet in each cup once the solvent had air-dried. The solutions remaining after completing applications to the one-ounce cups were then used as leaf-dip solutions for 3.5 cm leaf discs cut from cabbage leaves and cotton cotyledons. Five discs of each type of plant were dipped until thoroughly coated into each rate of each compound (=5 replications of each treatment). After air-drying, the treated leaf discs were placed individually into one-ounce plastic cups. Each dried, treated cotton cotyledon disc was infested with a 2nd instar tobacco budworm larva, and each cabbage leaf disc was infested with a 2nd instar cabbage looper larva. Cups containing the treated substrates and larvae were capped and then held in a growth chamber at 25° C., 50-55% RH, and 14 hr light: 10 hr dark for 5 days.

[5] = test system: cabbage looper (Trichoplusia ni); assay: Insecticidal test for cabbage looper, treated cabbage leaf disc; conditions: Trichoplusia ni, foliar, 120 h, read-out: CL: activity at 400 ppm against cabbage looper (% Control rating)
Procedure: as §1, §2

[6] = 50 ppm spray, squash cotyledons, all life stages, 3 days
[7] = 400 ppm, treated diet surface, second-instar larvae, 5 days
[8] = 400 ppm, leaf-dip cabbage leaf disc, 2nd instar larvae, 5 days

SMILES | pest or weed control at 50 ppm [1, 6] | pest or weed control [2] | pest or weed control at 400 ppm [4, 7] | pest or weed control at 400 ppm [5, 8] | other results
Clc1cncc(Cl)c1C1=NC(c2ccc(I)cc2)CO1 (stereo not drawn) [Compound 11, 2-(3,5-dichloro-4-pyridinyl)-4-(4-iodophenyl)oxazoline] | 90 to 100% | 90 to 100% |  |  | pest or weed control at 200 ppm [3]: 90 to 100%
Clc1cncc(Cl)c1C1=NC(c2ccccc2)CO1 (stereo not drawn) [Compound 1] | < 50% |  |  |  | pest or weed control at 200 ppm [3]: < 50%
Fc1ccc(C2COC(c3c(Cl)cncc3Cl)=N2)cc1 (stereo not drawn) [Compound 3] | 80 to 89% |  |  |  | pest or weed control at 200 ppm [3]: 80 to 89%
FC(F)(F)c1cc(-c2ccc(C3COC(c4c(Cl)cncc4Cl)=N3)cc2)cc(C(F)(F)F)c1 (stereo not drawn) [Compound 24] | < 50% |  | 90 to 100% |  | pest or weed control at 200 ppm [3]: < 50%
Cc1ccc(-c2ccc(C3COC(c4c(Cl)cncc4Cl)=N3)cc2)c(F)c1 (stereo not drawn) [Compound 33] | < 50% |  | 80 to 89% |  | 
Clc1cncc(Cl)c1C1=NC(c2ccc(Br)cc2)CO1 (stereo not drawn) [Compound 4, 2-(3,5-dichloro-4-pyridinyl)-4-(4-bromophenyl)oxazoline] | 90 to 100% | 90 to 100% |  |  | 
FCSc1ccc(-c2ccc(C3COC(c4c(Cl)cncc4Cl)=N3)cc2)cc1 (stereo not drawn) [Compound 37] | 90 to 100% | < 50% |  | 60 to 69% | 
Clc1ccc(C2COC(c3c(Cl)cncc3Cl)=N2)cc1 (stereo not drawn) [Compound 2] | 90 to 100% | < 50% |  |  | pest or weed control at 200 ppm [3]: < 50%
Cc1ccccc1-c1ccc(C2COC(c3c(Cl)cncc3Cl)=N2)cc1 (stereo not drawn) [Compound 25] | 80 to 89% |  | 90 to 100% | < 50% | 
Cc1ccc(-c2ccc(C3COC(c4c(Cl)cncc4Cl)=N3)cc2)cc1 (stereo not drawn) [Compound 9] |  |  |  |  | pest or weed control at 50 ppm [1]: 90 to 100%; pest or weed control at 400 ppm [4]: 90 to 100%
FC(F)(F)c1cccc(-c2ccc(C3COC(c4c(Cl)cncc4Cl)=N3)cc2)c1 (stereo not drawn) [Compound 15] | < 50% | < 50% | 90 to 100% | 90 to 100% | 
Fc1ccc(C(F)(F)F)cc1-c1ccc(C2COC(c3c(Cl)cncc3Cl)=N2)cc1 (stereo not drawn) [Compound 34] | 80 to 89% |  | 60 to 69% | 90 to 100% | 
CCOc1ccc(-c2ccc(C3COC(c4c(Cl)cncc4Cl)=N3)c(C)c2)cc1 (stereo not drawn) [Compound 42] | 80 to 89% | 90 to 100% | 90 to 100% | 80 to 89% | 
C[C@@H]1OC(c2c(Cl)cncc2Cl)=N[C@H]1c1ccc(I)cc1 [Compound 46, 4-[4-(4′-Iodophenyl)-5-methyl-4,5-dihydro-oxazol-2-yl]-3,5-dichloropyridines] | < 50% | < 50% |  |  | 
Cc1ccc(-c2ccc(C3COC(c4c(Cl)cncc4Cl)=N3)cc2)cc1C (stereo not drawn) [Compound 8] |  |  |  |  | pest or weed control at 400 ppm [5]: 80 to 89%; pest or weed control at 50 ppm [1]: 80 to 89%; pest or weed control at 400 ppm [4]: 90 to 100%
CSc1ccc(-c2ccc(C3COC(c4c(Cl)cncc4Cl)=N3)cc2)cc1 (stereo not drawn) [Compound 35] | < 50% |  | 90 to 100% | 90 to 100% | 
Cc1ccc(-c2ccc(C3COC(c4c(Cl)cncc4Cl)=N3)cc2)s1 (stereo not drawn) [Compound 10] |  |  |  |  | pest or weed control at 400 ppm [5]: 90 to 100%; pest or weed control at 50 ppm [1]: 60 to 69%; pest or weed control at 400 ppm [4]: 80 to 89%
Clc1cccc(-c2ccc(C3COC(c4c(Cl)cncc4Cl)=N3)cc2)c1 (stereo not drawn) [Compound 20] |  |  |  |  | pest or weed control at 400 ppm [5]: 90 to 100%; pest or weed control at 50 ppm [1]: < 50%
Clc1cncc(Cl)c1C1=NC(c2ccc(-c3ccc4c(c3)OCO4)cc2)CO1 (stereo not drawn) [Compound 13] | 80 to 89% | < 50% | 60 to 69% | 90 to 100% | 
C[C@H]1OC(c2c(Cl)cncc2Cl)=N[C@H]1c1ccc(I)cc1 [Compound 45, 4-[4-(4′-Iodophenyl)-5-methyl-4,5-dihydro-oxazol-2-yl]-3,5-dichloropyridines] | 90 to 100% |  |  |  | 
Cc1cc(Br)ccc1C1COC(c2c(Cl)cncc2Cl)=N1 (stereo not drawn) [Compound 41, 4-[4-(4-bromo-2-methylphenyl)-4,5-dihydro-1,3-oxazol-2-yl]-3,5-dichloropyridine] | 90 to 100% | < 50% |  |  | pest or weed control at 200 ppm [3]: < 50%
Clc1cncc(Cl)c1C1=NC(c2ccc(-c3ccccc3)cc2)CO1 (stereo not drawn) [Compound 28] | < 50% | 90 to 100% | 80 to 89% |  | 
COc1ccc(-c2ccc(C3COC(c4c(Cl)cncc4Cl)=N3)cc2)cn1 (stereo not drawn) [Compound 7] |  | 90 to 100% | 60 to 69% | 80 to 89% | 
FC(F)(F)c1ccccc1-c1ccc(C2COC(c3c(Cl)cncc3Cl)=N2)cc1 (stereo not drawn) [Compound 22] | 70 to 79% |  |  |  | 
Fc1ccccc1-c1ccc(C2COC(c3c(Cl)cncc3Cl)=N2)cc1 (stereo not drawn) [Compound 23] | 90 to 100% | 90 to 100% | 60 to 69% | 90 to 100% | 
Fc1cncc(F)c1C1=NC(c2ccc(-c3ccc(OC(F)(F)F)cc3)cc2)CO1 (stereo not drawn) [Compound 40] | < 50% | 90 to 100% | 90 to 100% | 90 to 100% | 
Clc1ccccc1-c1ccc(C2COC(c3c(Cl)cncc3Cl)=N2)cc1 (stereo not drawn) [Compound 18] | 50 to 59% | < 50% |  | 80 to 89% | 
Fc1ccc(-c2ccc(C3COC(c4c(Cl)cncc4Cl)=N3)cc2)cc1F (stereo not drawn) [Compound 14] | 60 to 69% | 90 to 100% | 80 to 89% |  | 
Cc1ccc(-c2ccc(C3COC(c4c(Cl)cncc4Cl)=N3)cc2)cc1F (stereo not drawn) [Compound 26] | 60 to 69% |  | 60 to 69% | 60 to 69% | 
